We go through one substance from US7807781B2, “Inhibitors of serine protease activity and their use in methods and compositions for treatment of viral infections” (The Regents of the University of Colorado, priority 1999, dated 2010).

Where two headings read alike, the source gives them in different places.

This experiment deals with lymphocyte-tropic HIV-1 strain A018A in PBMC. It is filed as cell-based.

Turning to “AAT: Alpha-1-antitrypsin purified from the blood of healthy volunteers to single-band homogeneity”, the “effect on p24 antigen production of AAT present during infection only” value (AAT removed, 4 days of culture in medium alone) is listed as “did not affect”. The p24 produced (PBMC infected in absence of AAT, 4 days with AAT 0.1 mg/ml) was 8,687±1,304 pg/ml; the p24 produced (PBMC infected in absence of AAT, 4 days with AAT 0.5 mg/ml) is listed as 7,392±1,299 pg/ml; the p24 produced (PBMC infected in absence of AAT, 4 days with AAT 1.0 mg/ml) is recorded as 6,613 pg/ml; the p24 produced (PBMC infected in absence of AAT, 4 days with AAT 2.0 mg/ml) was 6,258±1,772 pg/ml; the p24 produced (PBMC infected in absence of AAT, 4 days with AAT 3.0 mg/ml) was 5,275±316 pg/ml; the p24 produced (PBMC infected in absence of AAT, 4 days with AAT 4.0 mg/ml) was 4,725±101 pg/ml. Further, the p24 produced is, setting by setting: (PBMC infected in absence of AAT, 4 days with AAT 5.0 mg/ml) 3,508 pg/ml; (PBMC infected in presence of 3 mg/ml AAT, 4 days with AAT 0.1 mg/ml) 6,620±2,026 pg/ml; (PBMC infected in presence of 3 mg/ml AAT, 4 days with AAT 0.5 mg/ml) 6,047±1,322 pg/ml; (PBMC infected in presence of 3 mg/ml AAT, 4 days with AAT 1.0 mg/ml) 6,014±2,055 pg/ml; (PBMC infected in presence of 3 mg/ml AAT, 4 days with AAT 2.0 mg/ml) 2,516±345 pg/ml; (PBMC infected in presence of 3 mg/ml AAT, 4 days with AAT 3.0 mg/ml) 3,360±371 pg/ml. Besides, the p24 produced runs as follows: (PBMC infected in presence of 3 mg/ml AAT, 4 days with AAT 4.0 mg/ml) 2,743±316 pg/ml; (PBMC infected in presence of 3 mg/ml AAT, 4 days with AAT 5.0 mg/ml) 2,713±645 pg/ml. For the same substance, the “reduction in p24 antigen compared to control cultures” value was 22% (PBMC infected in absence of AAT, AAT 4.0 mg/ml) and 46% (PBMC infected in absence of AAT, AAT 5.0 mg/ml). Further, the “reduction in p24 production compared to control cultures” value runs as follows: (PBMC infected in presence of 3 mg/ml AAT, AAT 2.0 mg/ml) 71%; (PBMC infected in presence of 3 mg/ml AAT, AAT 3.0 mg/ml) 61%; (PBMC infected in presence of 3 mg/ml AAT, AAT 4.0 mg/ml) 65%; (PBMC infected in presence of 3 mg/ml AAT, AAT 5.0 mg/ml) 67%. The “Maximal p24 reduction in PBMC exposed to AAT for 4 days” value is, setting by setting: (cells infected in the absence of AAT) 46%; (cells infected in the presence of AAT) 71%.
